Results on three compounds are retold here after publication PMC5427467, “Isolation and characterization of phthalates from Brevibacterium mcbrellneri that cause cytotoxicity and cell cycle arrest” (EXCLI Journal, 2017).

Data set [1] relates to Staphylococcus epidermidis (MTCC 435). The data set is described as follows: Anti-bacterial activity, MIC in 96-well broth dilution. Particulars: MTCC435, S. epidermidis, 24 hrs at 37 °C. In kind it is cell-based. As for the experimental part:
(§1) The antibacterial evaluation was carried out against Gram positive bacteria; Staphylococcus epidermidis (MTCC 435), Bacillus subtilis (MTCC 441), Staphylococcus aureus (MTCC 96), and Gram negative bacteria; Pseudomonas aeruginosa (MTCC 741), E. coli (MTCC 443) and Klebsiella pneumoniae (MTCC 618). Brevibacterium mcbrellneri MTCC (3913) was chosen for isolation of biologically active compounds.
(§2) The minimum inhibitory concentrations (MIC) were recorded against Staphylococcus aureus, Bacillus subtilis, Staphylococcus epidermidis, Pseudomonas aeruginosa, Escherichia coli and Klebsiella pneumoniae. In brief 96-well plates were distributed with Nutrient broth and the compounds in different concentrations (150 μg/mL to 0.5μg/mL). 50 μL microbial suspensions were seeded into each well (0.5 MacFarland standards) to make the final volume of 200 μl with culture broth. The plates were incubated for 24 hrs at 37 °C. The lowest concentration, at which the visible inhibition was recorded, was considered as MIC. Streptomycin and Benzylpenicillin were used as positive controls.
Background: Broth dilution looks for growth in wells or tubes with falling amounts of substance.

The test system of the next data set is E. coli (MTCC 443). The description is as above. In kind it is cell-based. Particulars: Escherichia coli, MTCC443, 24 hrs at 37 °C. As for the experimental part:
as §1, §2

Data set [2] deals with Klebsiella pneumoniae (MTCC 618). The data set is described as above. In kind it is cell-based. Conditions: MTCC618, K. pneumoniae, 24 hrs at 37 °C. As for the experimental part:
as §1, §2

The subject of data set [3] is Bacillus subtilis (MTCC 441). The description is as above. Particulars: MTCC441, B. subtilis, 24 hrs at 37 °C. In kind it is cell-based. How it is done:
as §1, §2

The subject of data set [4] is Pseudomonas aeruginosa (MTCC 741). Described as above. In kind it is cell-based. Particulars: MTCC741, P. aeroginosa, 24 hrs at 37 °C. How it is done: as §1, §2
Data set [5] concerns Staphylococcus aureus (MTCC 96). Described as above. In kind it is cell-based. Conditions: MTCC96, S. aureus, 24 hrs at 37 °C. How it is done: as §1, §2
Data set [6] has as its system 4th instar larvae of Aedes aegypti. The data set is described as follows: Larvicidal bioassay/Dose-response bioassay. In kind it is in vivo. Conditions: 4th instar Aedes aegypti larvae, 24 h exposure. How it is done:
The early 4th instar larvae of Aedes aegypti were selected for evaluation of mosquito larvicidal activity. The larvae were collected and fed with a mixture powdered yeast and dog biscuits. These were maintained in insectaries till the emergence of adults. The colony was photo periodically maintained at 14 L: 10 D (hours) and with relative humidity 80 ± 5 % at 28 °C (Kumar et al., 2010[16]). Adult mosquitoes were fed with blood for egg maturation. The eggs were allowed to hatch in an enamel bowl lined with Whatman filter paper filled with distilled water. The pupae formed were separated and transferred to insectary for the emergence of adults (da Silva et al., 2016[6]).
Based on the preliminary screening results, different concentrations ranging from 25 to 200 ppm were prepared for DEHP and 25 to 1 ppm for DBP were used. The compounds were subjected to dose response bioassay against 4th instar larvae of Aedes aegypti larvae. Dead larvae were counted after 24 h of exposure, and the percentage mortality was reported from the average of triplicates (Govindarajan et al., 2016[9]).

Data set [7] has as its system B. subtilis. Further details: method as in Roy et al., 2006 [30]. Particulars: DBP isolated from Streptomyces albidoflavus, ref Roy et al., 2006 [30]; cited from earlier work.
The next data set has as its system DU-145. The data set is described as follows: MTT cell proliferation assay. Conditions: Homo sapiens; DU-145, MTT, 24 hrs. In kind it is cell-based. How it is done:
(§3) The MTT cell proliferation was assessed against the cell lines HeLa (ATCC; CCL-2), A549 (ATCC; CCL-185), MCF-7 (ATCC; HTB-22), DU145 (ATCC; HTB-81), CHO (ATCC; CCL-61), HEK293 (ATCC; CRL-1573), NIH3T3 (ATCC; CRL-1658) were procured from the American Type Culture Collection (ATCC). These cell lines were grown and maintained in Dulbecco's modified Eagle's medium with non-essential amino acids, 10 % fetal bovine serum (FBS), 1 mM sodium pyruvate, in humidified atmosphere containing 5 % CO2 at 37 °C (Esumi et al., 2004[7]).
(§4) The cell lines were seeded in 96-well plates in 200 µL aliquots. The test compounds in different concentrations were added and incubated at 37 °C for 24 hrs. Doxorubicin was used as positive control (Prata-Sena et al., 2016[28]).
A general note: Formazan colour is commonly taken as a measure of viable cells.

For a further data set, the system named is MCF-7. The data set can be described thus: MTT cell proliferation assay. In kind it is cell-based. Conditions: Homo sapiens, MCF7; MCF-7, MTT, 24 hrs. How it is done:
as §3, §4

A further data set concerns CHO. The data set is described as follows: MTT cell proliferation assay. Particulars: Cricetulus griseus, 24 hrs. In kind it is cell-based. As for the experimental part:
as §3, §4

In another data set the test system is HEK 293. The data set is described as follows: MTT cell proliferation assay. In kind it is cell-based. Conditions: Homo sapiens, HEK293; HEK 293, MTT, 24 hrs. As for the experimental part:
as §3, §4

In a further data set the test system is E. coli. More on the design: method as in Roy et al., 2006 [30]. Conditions: DBP isolated from Streptomyces albidoflavus, ref Roy et al., 2006 [30]; cited from earlier work.
The subject of a further data set is A. niger. Further details: method as in Roy et al., 2006 [30]. Conditions: DBP isolated from Streptomyces albidoflavus, ref Roy et al., 2006 [30]; cited from earlier work.
In the next data set the test system is S. cerevisiae. Further details: method as in Roy et al., 2006 [30]. Particulars: DBP isolated from Streptomyces albidoflavus, ref Roy et al., 2006 [30]; cited from earlier work.
The test system of a further data set is A549 cells. Further details: method as in Hsu et al., 2011 [14]. Conditions: ref Hsu et al., 2011 [14]; cited from earlier work.
The subject of the next data set is S. typhi. More on the design: method as in Roy et al., 2006 [30]. Particulars: DBP isolated from Streptomyces albidoflavus, ref Roy et al., 2006 [30]; cited from earlier work.
For the next data set, the system named is Curvularia pallescens. More on the design: method as in Roy et al., 2006 [30]. Particulars: DBP isolated from Streptomyces albidoflavus, ref Roy et al., 2006 [30]; cited from earlier work.
Data set [8] deals with B. subtilis. Further details: method as in Habib and Karim, 2009 [10]. Conditions: DEHP isolated from Calotropis gigantean, ref Habib and Karim, 2009 [10]; cited from earlier work.
The test system of another data set is Sarcina lutea. Further details: method as in Habib and Karim, 2009 [10]. Conditions: DEHP isolated from Calotropis gigantean, ref Habib and Karim, 2009 [10]; cited from earlier work.
For the next data set, the system named is HaCaT cells. Further details: method as in Peropadre et al., 2015 [26]. Particulars: ref Peropadre et al., 2015 [26]; cited from earlier work.
The next data set relates to HePG2 cells. Further details: method as in Lyu et al., 2016 [19]. Particulars: ref Lyu et al., 2016 [19]; cited from earlier work.
Details of data set [9]: method as in Habib and Karim, 2009 [10]. Conditions: DEHP isolated from Calotropis gigantean; ref Habib and Karim, 2009 [10]; cited from earlier work.

≈ marks a conversion by molar mass, not a printed value. Like-named read-outs stand apart in the source and are kept apart here.

In the case of `CCCCOC(=O)c1ccccc1C(=O)OCCCC` [DBP, dibutyl phthalate], the MIC (commonly the least concentration at which growth counts as inhibited) in data set [1] was 18.8 µg/mL (≈ 67.4 µM); in the data set with E. coli (MTCC 443) it was 37.5 µg/mL (≈ 135 µM); in [2], 75 µg/mL (≈ 269 µM); in data set [3], 18.8 µg/mL (≈ 67.4 µM); in data set [4], 37.5 µg/mL (≈ 135 µM); in [5], 37.5 µg/mL (≈ 135 µM). Moreover, the MIC with B. subtilis [7] was 84 µg/mL (≈ 302 µM); in the data set on E. coli, 53 µg/mL (≈ 190 µM); in the data set with A. niger, 98 µg/mL (≈ 352 µM); in the data set on S. cerevisiae, 92 µg/mL (≈ 331 µM); in the data set on S. typhi, 76 µg/mL (≈ 273 µM); with Curvularia pallescens, 117 µg/mL (≈ 420 µM). In addition, the LC50 (commonly the concentration lethal to half of the exposed cells or organisms) in data set [6] amounted to 1.62 ppm. In data set [6] (at 25 ppm), the mortality (in general, the percentage killed) at 25 ppm amounted to 100%. Besides, the half-inhibitory concentration (IC50) (usually the concentration that inhibits the measured activity by half) in the data set with DU-145 turned out to be 31.2 ± 8.7 µg/mL (≈ 112 µM); in the data set on MCF-7, 32.4 ± 3.6 µg/mL (≈ 117 µM); with CHO it was 36 ± 8.6 µg/mL (≈ 129 µM); in the data set with HEK 293, 19.8 ± 10 µg/mL (≈ 71 µM). Besides, in the data set on A549 cells, the cytotoxic activity entry is listed as “Cytotoxic activity”.

Consider `CCCCC(CC)COC(=O)c1ccccc1C(=O)OCC(CC)CCCC` (centres unmarked) [DEHP, di-(2-ethylhexyl) phthalate], for which the minimum inhibitory concentration (MIC) is 9.37 µg/mL (≈ 24 µM) in data set [1]; 37.5 µg/mL (≈ 96 µM) against E. coli (MTCC 443); 75 µg/mL (≈ 192 µM) in [2]; 37.5 µg/mL (≈ 96 µM) in data set [3]; 75 µg/mL (≈ 192 µM) in data set [4]; 18.8 µg/mL (≈ 48 µM) in data set [5]. The minimal inhibitory concentration (MIC) with B. subtilis [8] and in the data set on Sarcina lutea was 32 µg/mL (≈ 81.9 µM) throughout. Besides, the LC50 in data set [6] amounted to 47.65 ppm. The cell cycle effect result with HaCaT cells is “cell cycle arrest at G1 phase”. For the same compound, the concentration for half-maximal inhibition (IC50) turned out to be 33.5 ± 7.7 µg/mL (≈ 85.7 µM) with DU-145, 46.55 ± 0.1 µg/mL (≈ 119 µM) in the data set with MCF-7 and 193 ± 5.4 µg/mL (≈ 494 µM) in the data set with CHO. Further, the “apoptosis / cell cycle effect” value in the data set on HePG2 cells was “apoptosis without cell cycle arrest”. In addition, the antifungal property entry in [9] is “negligible”.

In the data set with HEK 293, `COc1cccc2c1C(=O)c1c(O)c3c(c(O)c1C2=O)C[C@@](O)(C(=O)CO)C[C@@H]3O[C@H]1C[C@H](N)[C@H](O)[C@H](C)O1` [doxorubicin, Doxorubicin, reference compound] had an IC50 of 21.8 ± 8.8 µg/mL (≈ 40.1 µM).
